Assay results: patent publication US20190192485A1, “DOSAGE REGIMEN FOR THE TREATMENT OF ENDOMETRIOSIS” (MEREO BIOPHARMA 2 LIMITED, priority 2016, published 2019)
In brackets after ≈: the same amount, converted by molar mass.

Columns and labels:
[1] = Toxicologic studies in dogs: plasma exposure after single and weekly oral dosing; format: in vivo
Description: (§1) Generally, the inter-animal variability in Cmax levels was small.

[2] = test system: estrone, estrone sulfate and estradiol; assay: Single ascending dose study in women: PD (estrogen suppression); format: in vivo, human
Description: (§2) A minimal toxic dose (MTD) was not reached. […] Table 3 presents the PK parameters based on analysis of the concentration-time profile obtained from this study.

[3] = Single ascending dose study in pre- and post-menopausal women: safety, tolerability and PK; format: in vivo, human; settings: for AUC(0-tlast) Mean / Cmax Mean / T1/2 Mean / Tmax Median: po
Description: The drug concentration in plasma and/or serum samples can be determined by a number of different ways, e.g. HPLC or LC-MS/MS analyses. […]
as §2

[4] = Tissue (fat) biopsy concentration versus plasma; format: in vivo; settings: human fat biopsies, read-out: concentration in tissue (fat) relative to plasma/blood
aromatase [5] = target: T1, aromatase (Homo sapiens, UniProt P11511); assay: Low dose study in obese men with low testosterone, with PK/PD analyses of aromatase inhibition; format: in vivo
T1 construct: high levels of aromatase in the adipose tissue; from tissue; host or cells: in vivo, human subjects (aromatase of adipose tissue)
T1 sequence (P11511 1-503): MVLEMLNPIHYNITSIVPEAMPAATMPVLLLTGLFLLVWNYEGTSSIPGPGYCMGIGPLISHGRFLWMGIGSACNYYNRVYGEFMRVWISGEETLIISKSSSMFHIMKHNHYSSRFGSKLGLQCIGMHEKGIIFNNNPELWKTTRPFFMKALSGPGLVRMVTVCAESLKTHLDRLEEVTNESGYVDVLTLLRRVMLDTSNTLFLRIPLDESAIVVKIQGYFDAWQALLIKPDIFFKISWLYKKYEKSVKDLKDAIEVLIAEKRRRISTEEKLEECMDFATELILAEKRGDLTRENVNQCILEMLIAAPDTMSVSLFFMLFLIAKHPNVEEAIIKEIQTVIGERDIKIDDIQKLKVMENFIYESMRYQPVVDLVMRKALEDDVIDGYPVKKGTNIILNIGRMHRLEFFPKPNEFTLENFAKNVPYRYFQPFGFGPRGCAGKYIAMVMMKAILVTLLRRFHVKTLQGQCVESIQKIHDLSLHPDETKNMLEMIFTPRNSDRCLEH

aromatase [6] = target: T1, aromatase; settings: microsomal fraction of human placenta; cited from earlier work
testosterone levels = assay: Serum testosterone levels in male dogs after 1, 4 and 12 weeks of dosing; format: in vivo; settings: all dose levels
Description: as §1

aromatase [7] = target: T2, aromatase (Rattus norvegicus, UniProt P22443); settings: once weekly administration, adult female rats; cited from earlier work
T2 construct: achieving medical castration in adult female rats; from tissue; host or cells: in vivo, adult female rats
T2 sequence (P22443 1-508): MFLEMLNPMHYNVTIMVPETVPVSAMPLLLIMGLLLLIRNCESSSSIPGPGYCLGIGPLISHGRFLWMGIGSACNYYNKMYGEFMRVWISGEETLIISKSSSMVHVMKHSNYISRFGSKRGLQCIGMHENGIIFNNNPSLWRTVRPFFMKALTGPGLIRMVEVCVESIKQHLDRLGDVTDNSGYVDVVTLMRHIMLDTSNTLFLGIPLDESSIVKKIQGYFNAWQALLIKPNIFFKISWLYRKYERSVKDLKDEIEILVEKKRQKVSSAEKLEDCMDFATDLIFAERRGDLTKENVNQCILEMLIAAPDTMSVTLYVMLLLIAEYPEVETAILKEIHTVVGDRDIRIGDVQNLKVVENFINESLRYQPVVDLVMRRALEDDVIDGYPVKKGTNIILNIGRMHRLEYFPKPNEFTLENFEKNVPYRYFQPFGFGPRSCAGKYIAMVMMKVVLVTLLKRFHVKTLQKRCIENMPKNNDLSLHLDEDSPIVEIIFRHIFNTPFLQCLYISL

[8] = Single 1.0 mg dose with combined oral contraceptive in premenopausal women (PK interaction, safety)
Procedure: The study consisted of a 49-day screening period and four consecutive 28-day (menstrual) cycles.
For the combined oral contraceptive, 30 μg of ethinyl estradiol and 0.15 mg of levonorgestrel (Seasonique®) was used. Seasonique® is an oral contraceptive designed and approved for daily administration. The 84 blue-green tablets (30-μg ethinyl estradiol and 0.15 mg levonorgestrel) are packaged with seven yellow tablets containing 10-μg ethinyl estradiol to eliminate the hormone free interval.

[9] = female, human, in vivo, 0.01 mg
[10] = female, human, in vivo, 0.03 mg

N#Cc1ccc(C(F)(c2ccc(C#N)cc2)n2cncn2)cc1 [CGP47645, 4,4′-[fluoro-(1-H-1,2,4-triazol-1-yl)methylene]bisbenzonitrile]
difference in exposure (AUC and Cmax) between male and female dogs ([1]; dogs): no consistent difference | drug accumulation ([1]; dogs, weekly oral dosing for 4 or 22 weeks versus single dose): no drug accumulation | increase in exposure (AUC and Cmax) with dose ([1]; male and female dogs, single and multiple doses, all dose levels): generally proportional to the dose increase | lowest single dose at which maximal estrogen suppression was observed ([2]; post-menopausal women, chemiluminescence or radioimmunoassay): 0.1 mg | lowest single dose at which transient estrogen suppression was seen ([2]; postmenopausal women): 0.01 mg | estrone suppression compared with letrozole ([2]; postmenopausal women, doses of 0.1 mg and 0.3 mg): at least equal to letrozole | inhibition of estrone, estrone sulfate and estradiol ([2]; women, single ascending doses): dose-dependent inhibition | inter-subject variability ([3]; female, human, in vivo): 10-30% | Tmax ([3]; female, human, in vivo, Tmax): 0.5 to 2 h | Tmax ([3]; female, human, in vivo, median Tmax): ≤ 1 h | AUC(0-tlast) Mean [3, 9]: 1.4 ng·h/mL | Cmax Mean [3, 9]: 0.2 ng/mL | T1/2 Mean [3, 9]: 55.2 h | Tmax Median [3, 9]: 1 h | AUC(0-tlast) Mean [3, 10]: 24.1 ng·h/mL | Cmax Mean [3, 10]: 0.4 ng/mL | T1/2 Mean [3, 10]: 396 h | AUC(0-tlast) Mean ([3]; female, human, in vivo, 0.1 mg): 116.2 ng·h/mL | Cmax Mean ([3]; female, human, in vivo, 0.1 mg): 1.7 ng/mL | T1/2 Mean ([3]; female, human, in vivo, 0.1 mg): 564 h | Tmax Median ([3]; female, human, in vivo, 0.1 mg): 1 h | Tmax Median ([3]; female, human, in vivo, 0.3 mg): 1 h | Tmax Median ([3]; female, human, in vivo, 1 mg): 1 h | Tmax Median ([3]; female, human, in vivo, 3 mg): 1 h | dose dependence of half-life ([3]; human, in vivo): directly dose dependent | dose proportionality of Cmax and AUC ([3]; human, in vivo): increased in a dose-proportional manner | difference in pharmacokinetics between post- and pre-menopausal women ([3]; in vivo): No differences | minimal toxic dose (MTD) ([3]; single doses 0.01 mg through 20 mg, post-menopausal women): not reached | Kp [4]: ≤ 10 | average estimated IC40 for aromatase inhibition (aromatase [5]; PK/PD analyses, plasma concentration): 0.03 ng/mL | IC90 (aromatase [5]; PK/PD analyses, plasma concentration, read-out: average estimated IC90 for aromatase inhibition): 0.27 ng/mL (≈ 0.89 nM) | lowest dose with effects on the aromatase-testosterone-estradiol pathway (aromatase [5]; females and males with obesity-associated hypogonadotropic hypogonadism, blood levels below IC50): 0.003 mg | mode of aromatase inhibition (aromatase [6]): competitive inhibitor | serum testosterone levels (testosterone levels): dramatically elevated testosterone levels | effective dose achieving medical castration (aromatase [7]): 3 mg/kg | safety of co-administration with continuously dosed COC ([8]; in vivo): may be co-administered safely | pharmacokinetic parameters with COC compared with single ascending dose study without COC ([8]; in vivo, po): similar

C#C[C@]1(O)CC[C@H]2[C@@H]3CCC4=CC(=O)CC[C@@H]4[C@H]3CC[C@@]21CC [levonorgestrel, reference compound]
steady state pharmacokinetic profile with 1 mg CGP47645 versus placebo ([8]; Day 29, surgically sterile healthy premenopausal women, COC 30 μg ethinyl estradiol and 0.15 mg levonorgestrel): similar
